Key:
Assay in all cases: relative viability (nuclei count vs DMSO), 5 days (fraction); higher = more cells survive
[1] = system: LK-2
Outline: (§1)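 Relative viability is defined as nuclei in treated wells over nuclei in vehicle wells. Duplicate plates were run and medians reported. Lung cancer cell lines in 1536-well plates were dosed by pin tool one day after seeding, with one drug or with a fixed anchor-drug dose plus five library-drug doses (not always all listed) in √10 steps, and nuclei were counted after 5 days.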

[2] = system: HARA
Outline: as §1

[3] = system: SK-LU-1
Outline: as §1

[4] = system: UMC-11
Outline: as §1

[5] = system: NCI-H2009
Outline: as §1

[6] = system: NCI-H23
Outline: as §1

[7] = system: HCC-78
Outline: as §1

[8] = system: NCI-H1734
Outline: as §1

[9] = system: ABC-1
Outline: as §1

[10] = system: NCI-H838
Outline: as §1

[11] = system: ChaGo-K-1
Outline: as §1

[12] = system: LC-2-ad
Outline: as §1

[13] = system: A-427
Outline: as §1

[14] = system: HCC-366
Outline: as §1

[15] = system: HCC-15
Outline: as §1

[16] = system: COR-L23
Outline: as §1

[17] = system: NCI-H1993
Outline: as §1

[18] = system: NCI-H2405
Outline: as §1

[19] = system: NCI-H1650
Outline: as §1

[20] = system: NCI-H1944
Outline: as §1

[21] = system: NCI-H2023
Outline: as §1

[22] = system: NCI-H1793
Outline: as §1

[23] = system: EMC-BAC-2
Outline: as §1

CC(C)Oc1cc(Nc2nc(N[C@@H](C)c3ccc(F)cn3)ncc2Cl)n[nH]1 [AZ23] + Nc1ncn([C@H]2C[C@H](O)[C@@H](CO)O2)c(=O)n1 [Decitabine] (partner 2 µM)
relative viability ([1]; first compound 0.01 µM): 0.337 | relative viability ([1]; first compound 0.03162 µM): 0.306 | relative viability ([1]; first compound 0.3162 µM): 0.272 | relative viability ([2]; first compound 0.01 µM): 0.621 | relative viability ([2]; first compound 0.03162 µM): 0.581 | relative viability ([2]; first compound 0.3162 µM): 0.504 | relative viability ([3]; first compound 0.03162 µM): 0.651 | relative viability ([3]; first compound 0.3162 µM): 0.643 | relative viability ([4]; first compound 0.01 µM): 0.562 | relative viability ([4]; first compound 0.03162 µM): 0.747 | relative viability ([4]; first compound 0.3162 µM): 0.587 | relative viability ([5]; first compound 0.01 µM): 0.406 | relative viability ([5]; first compound 0.03162 µM): 0.356 | relative viability ([5]; first compound 0.3162 µM): 0.396 | relative viability ([6]; first compound 0.03162 µM): 0.307 | relative viability ([6]; first compound 0.3162 µM): 0.274 | relative viability ([7]; first compound 0.01 µM): 0.725 | relative viability ([7]; first compound 0.03162 µM): 0.777 | relative viability ([7]; first compound 0.3162 µM): 0.728 | relative viability ([8]; first compound 0.01 µM): 0.532 | relative viability ([8]; first compound 0.03162 µM): 0.521 | relative viability ([8]; first compound 0.3162 µM): 0.482 | relative viability ([9]; first compound 0.01 µM): 1 | relative viability ([9]; first compound 0.03162 µM): 1.22 | relative viability ([9]; first compound 0.3162 µM): 0.96 | relative viability ([10]; first compound 0.01 µM): 0.487 | relative viability ([10]; first compound 0.03162 µM): 0.506 | relative viability ([10]; first compound 0.3162 µM): 0.44 | relative viability ([11]; first compound 0.01 µM): 0.567 | relative viability ([11]; first compound 0.03162 µM): 0.512 | relative viability ([11]; first compound 0.3162 µM): 0.519 | relative viability ([12]; first compound 0.01 µM): 1.01 | relative viability ([12]; first compound 0.03162 µM): 0.862 | relative viability ([12]; first compound 0.3162 µM): 0.782 | relative viability ([13]; first compound 0.01 µM): 0.508 | relative viability ([13]; first compound 0.03162 µM): 0.558 | relative viability ([13]; first compound 0.3162 µM): 0.591 | relative viability ([14]; first compound 0.01 µM): 0.319 | relative viability ([14]; first compound 0.03162 µM): 0.373 | relative viability ([14]; first compound 0.3162 µM): 0.333 | relative viability ([15]; first compound 0.01 µM): 0.654 | relative viability ([15]; first compound 0.03162 µM): 0.596 | relative viability ([15]; first compound 0.3162 µM): 0.663 | relative viability ([16]; first compound 0.01 µM): 0.361 | relative viability ([16]; first compound 0.03162 µM): 0.497 | relative viability ([16]; first compound 0.3162 µM): 0.449 | relative viability ([17]; first compound 0.01 µM): 0.514 | relative viability ([17]; first compound 0.03162 µM): 0.626 | relative viability ([17]; first compound 0.3162 µM): 0.513 | relative viability ([18]; first compound 0.01 µM): 0.774 | relative viability ([18]; first compound 0.03162 µM): 0.805 | relative viability ([18]; first compound 0.3162 µM): 0.721 | relative viability ([19]; first compound 0.01 µM): 0.421 | relative viability ([19]; first compound 0.03162 µM): 0.41 | relative viability ([19]; first compound 0.3162 µM): 0.481 | relative viability ([20]; first compound 0.01 µM): 0.456 | relative viability ([20]; first compound 0.03162 µM): 0.46 | relative viability ([20]; first compound 0.3162 µM): 0.433 | relative viability ([21]; first compound 0.03162 µM): 0.259 | relative viability ([21]; first compound 0.3162 µM): 0.239 | relative viability ([22]; first compound 0.01 µM): 0.594 | relative viability ([22]; first compound 0.03162 µM): 0.559 | relative viability ([22]; first compound 0.3162 µM): 0.414 | relative viability ([23]; first compound 0.01 µM): 0.966 | relative viability ([23]; first compound 0.03162 µM): 0.998 | relative viability ([23]; first compound 0.3162 µM): 0.949

— the supplement of paper PMC10307832
